# From US8906852B2 (MethylGene Inc., priority 2010, dated 2014)
# Molecular target: T1, VEGFR/KDR (Homo sapiens, UniProt P35968)
# T1 construct: made in house; host or cells: Sf9 cells (Spodoptera frugiperda), baculovirus
# Assay: VEGFR/KDR kinase inhibition, DELFIA assay
# Format: biochemical
# Conditions: ATP 0.6 uM (2x Km), enzyme 5 nM
# How it was run: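 Enzyme (5 nM) pre-incubated 4 min on ice with inhibitor and Mg-ATP (0.6 uM, 2× Km), then reacted 10-30 min at 30° C on immobilized poly(Glu4,Tyr). EDTA-quenched phosphotyrosine detected with Europium-labeled antibody by time-resolved fluorescence; IC50 from concentration series.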
# T1 sequence (P35968 806-1356): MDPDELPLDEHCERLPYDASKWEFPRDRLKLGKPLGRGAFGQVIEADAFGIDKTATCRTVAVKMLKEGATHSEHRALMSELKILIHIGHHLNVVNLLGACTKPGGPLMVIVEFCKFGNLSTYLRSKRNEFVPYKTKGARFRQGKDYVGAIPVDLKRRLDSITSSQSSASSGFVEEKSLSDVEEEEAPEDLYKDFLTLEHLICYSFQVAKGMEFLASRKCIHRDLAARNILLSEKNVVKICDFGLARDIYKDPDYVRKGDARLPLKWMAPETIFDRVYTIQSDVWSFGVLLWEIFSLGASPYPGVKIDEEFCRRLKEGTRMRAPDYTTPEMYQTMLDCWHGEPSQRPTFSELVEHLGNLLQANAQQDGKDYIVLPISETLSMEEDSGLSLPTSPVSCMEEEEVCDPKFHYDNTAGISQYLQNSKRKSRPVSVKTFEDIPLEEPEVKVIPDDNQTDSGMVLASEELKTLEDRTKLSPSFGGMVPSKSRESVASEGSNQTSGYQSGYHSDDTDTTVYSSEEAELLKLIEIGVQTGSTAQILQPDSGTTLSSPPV
row,IC50 [nM],SMILES
1,< 50,COCCOCC(=O)N1CC=C(c2cc3nccc(Oc4ccc(NC(=O)NC5CC5)cc4F)c3s2)CC1 [Compound 274]
2,< 50,CS(=O)(=O)NC1CCN(Cc2ccc(-c3cc4nccc(Oc5ccc(NC(=O)NC6CC6)cc5F)c4s3)nc2)CC1 [Compound 350]
3,< 50,"NCC(=O)N1CCN(Cc2ccc(-c3cc4nccc(Oc5ccc(NC(=O)NC6CC6)cc5F)c4s3)nc2)CC1 [Compound 77, 1-(4-(2-(5-((4-(2-aminoacetyl)piperazin-1-yl)methyl)pyridin-2-yl)thieno[3,2-b]-pyridin-7-yloxy)-3-fluorophenyl)-3-cyclopropylurea]"
4,< 50,"O=C(Nc1ccc(Oc2ccnc3cc(-c4cn(CC(=O)N5CCNCC5)nn4)sc23)c(F)c1)NC1CC1 [Compound 389, 1-Cyclopropyl-3-(3-fluoro-4-(2-(1-(2-oxo-2-(piperazin-1-yl)ethyl)-1H-1,2,3-triazol-4-yl)thieno[3,2-b]pyridin-7-yloxy)phenyl)urea]"
5,< 50,"COCCOCCOCCOCCNCc1ccc(-c2cc3nccc(Oc4ccc(NC(=O)NC5CC5)c(F)c4F)c3s2)nc1 [Compound 171, 1-(4-(2-(5-5,8,11,14-tetraoxa-2-azapentadecylpyridin-2-yl)thieno[3,2-b]pyridin-7-yloxy)-2,3-diiluorophenyl)-3-cyclopropylurea]"
6,< 50,"CC(=O)OCC(=O)N1CCN(Cc2ccc(-c3cc4nccc(Oc5ccc(NC(=O)NC6CC6)cc5F)c4s3)nc2)C[C@@H]1C [Compound 528, (S)-2-(4-((6-(7-(4-(3-cyclopropylureido)-2-fluorophenoxy)thieno[3,2-b]pyridin-2-yl)pyridin-3-yl)methyl)-2-methylpiperazin-1-yl)-2-oxoethyl acetate]"
7,≥ 250,O=C(O)CCNC(=O)NC1CCN(Cc2ccc(-c3cc4nccc(Oc5ccc(NC(=O)NC6CC6)cc5F)c4s3)nc2)CC1 [Compound 429]
8,< 50,CN(C(=O)OC(C)(C)C)C1CCN(C(=O)c2ccc(-c3cc4nccc(Oc5ccc(NC(=O)NC6CC6)cc5F)c4s3)nc2)CC1 [Compound 397]
9,< 50,"O=C1CN(Cc2ccc(-c3cc4nccc(Oc5ccc(NC(=O)NC6CC6)cc5F)c4s3)nc2)CCN1 [Compound 67, l-cyclopropyl-3-(3-fluoro-4-(2-(5-((3-oxopiperazin-1-yl)methyl)pyridin-2-yl)thieno[3,2-b]-pyridin-7-yloxy)phenyl)urea]"
10,< 50,"O=C(Nc1ccc(Oc2ccnc3cc(-c4ccc(CN5CCN(CCN6CCOCC6)CC5)cn4)sc23)c(F)c1)NC1CC1 [Compound 54-A, 1-cyclopropyl-3-(3-fluoro-4-(2-(5-((4-(2-morpholinoethyl)piperazin-1-yl)methyl)pyridin-2-yl)thieno[3,2-b]pyridin-7-yloxy)phenyl)urea]"
11,< 50,CN(CCO)Cc1ccc(-c2cc3nccc(Oc4ccc(NC(=O)NC5CC5)cc4F)c3s2)nc1 [Compound 50-A]
12,< 50,"CC(C)N1CCN(Cc2ccc(-c3cc4nccc(Oc5ccc(NC(=O)NC6CC6)cc5F)c4s3)nc2)CC1 [Compound 54-E, 1-cyclopropyl-3-(3-fluoro-4-(2-(5-((4-isopropylpiperazin-1-yl)methyl)pyridin-2-yl)thieno[3,2-b]pyridin-7-yloxy)phenyl)urea]"
13,< 50,"CCOC(=O)C1CCN(Cc2ccc(-c3cc4nccc(Oc5ccc(NC(=O)NC6CC6)cc5F)c4s3)nc2)CC1 [Compound 58, ethyl 1-((6-(7-(4-(3-cyclopropylureido)-2-fluorophenoxy)-thieno[3,2-b]pyridin-2-yl)pyridin-3-yl)methyl)piperidine-4-carboxylate]"
14,< 50,CC(=O)OCC(=O)NC1CCN(Cc2ccc(-c3cc4nccc(Oc5ccc(NC(=O)NC6CC6)cc5F)c4s3)nc2)CC1 [Compound 345]
15,< 50,"CC1(C)CN(Cc2ccc(-c3cc4nccc(Oc5ccc(NC(=O)NC6CC6)cc5F)c4s3)nc2)CCN1C(=O)CO [Compound 498, 1-cyclopropyl-3-(3-fluoro-4-(2-(5-((4-(2-hydroxyacetyl)-3,3-dimethylpiperazin-1-yl)methyl)pyridin-2-yl)thieno[3,2-b]pyridin-7-yloxy)phenyl)urea]"
16,< 50,"O=C(Nc1ccc(Oc2ccnc3cc(-c4cn(CCN5CCCC5=O)cn4)sc23)c(F)c1)NC1CC1 [Compound 267, 1-cyclopropyl-3-(3-fluoro-4-(2-(1-(2-(2-oxopyrrolidin-1-yl)ethyl)-1H-imidazol-4-yl)thieno[3,2-b]pyridin-7-yloxy)phenyl)urea]"
17,< 50,CCN(CC)CCn1cc(-c2cc3nccc(Oc4ccc(NC(=O)NC5CC5)cc4F)c3s2)nn1 [Compound 363]
18,< 50,CC(C)NC(=O)NC1CCN(Cc2ccc(-c3cc4nccc(Oc5ccc(NC(=O)NC6CC6)cc5F)c4s3)nc2)CC1 [Compound 355]

row,IC50 [nM],SMILES
1,50 to 100,"CN1CCN(C(=O)C2CCN(C(=O)c3cc4nccc(Oc5ccc(NC(=O)NC6CC6)cc5F)c4s3)CC2)CC1 [Compound 472, 1-cyclopropyl-3-(3-fluoro-4-(2-(4-(4-methylpiperazine-l-carbonyl)piperidine-1-carbonyl)thieno[3,2-b]pyridin-7-yloxy)phenyl)urea]"
2,< 50,O=C(O)CNC(=O)NC1CN(Cc2ccc(-c3cc4nccc(Oc5ccc(NC(=O)NC6CC6)cc5F)c4s3)nc2)C1 [Compound 428]
3,50 to 100,"COCCNCc1ccc(-c2cc3nccc(Oc4ccc(NC(=O)CC5CC5)cc4F)c3s2)nc1 [Compound 13, 2-cyclopropyl-N-(3-fluoro-4-(2-(5-((2-methoxyethylamino)methyl)pyridin-2-yl)-thieno[3,2-b]pyridin-7-yloxy)phenyl)acetamide]"
4,< 50,"CN1CCCN(Cc2ccc(-c3cc4nccc(Oc5ccc(NC(=O)NC6CC6)cc5F)c4s3)nc2)CC1 [Compound 54-B, 1-cyclopropyl-3-(3-fluoro-4-(2-(5-((4-methyl-1,4-diazepan-1-yl)methyl)pyridin-2-yl)thieno[3,2-b]pyridin-7-yloxy)phenyl)urea]"
5,< 50,"C[C@@H]1CN(Cc2ccc(-c3cc4nccc(Oc5ccc(NC(=O)NC6CC6)cc5F)c4s3)nc2)C[C@H](C)N1C(=O)CO [Compound 531, 1-cyclopropyl-3-(3-fluoro-4-(2-(5-(((3S,5R)-4-(2-hydroxyacetyl)-3,5-dimethylpiperazin-1-yl)methyl)pyyridin-2-yl)thieno[3,2-b]pyridin-7-yloxy)phenyl)urea]"
6,< 50,"O=C(Nc1ccc(Oc2ccnc3cc(-c4ccc(C(=O)N5CCOC(C(=O)O)C5)cn4)sc23)c(F)c1)NC1CC1 (centres unmarked) [Compound 241, 4-(6-(7-(4-(3-cyclopropylureido)-2-fluorophenoxy)thieno[3,2-b]-pyridin-2-yl)nicotinoyl)morpholine-2-carboxylic acid]"
7,50 to 100,"COCCN(Cc1ccc(-c2cc3nccc(Oc4ccc(NC(=O)NC5CC5)cc4F)c3s2)nc1)CC(F)(F)F [Compound 8, 1-cyclopropyl-3-(3-fluoro-4-(2-(5-(((2-methoxyethyl)(2,2,2-trifluoroethyl)amino)-methyl)pyridin-2-yl)thieno [3,2-b]pyridin-7-yloxy)phenyl)urea]"
8,< 50,"O=C(Nc1ccc(Oc2ccnc3cc(-c4ccc(C(=O)NCCN5CCOCC5)cn4)sc23)c(F)c1)NC1CC1 [Compound 235, 6-(7-(4-(3-cyclopropylureido)-2-fluorophenoxy)thieno[3,2-b]pyridin-yl)-N-(2-morpholinoethyl)nicotinamide]"
9,50 to 100,"COCCN(Cc1cnc(-c2cc3nccc(Oc4ccc(NC(=O)NC(C)C)cc4F)c3s2)n1C)C(C)=O [Compound 117-A, N-((2-(7-(2-fluoro-4-(3-isopropylureido)phenoxy)thieno[3,2-b]-pyridin-2-yl)-1-methyl-1H-imidazol-5-yl)methyl)-N-(2-methoxyethyl)acetamide]"
10,< 50,"COCCOCCOCCOCCNC(=O)c1ccc(-c2cc3nccc(Oc4ccc(NC(=O)NC5CC5)cc4F)c3s2)nc1 [Compound 229, 6-(7-(4-(3-cyclopropylureido)-2-fluorophenoxy)thieno[3,2-b]pyridin-2-yl)-N-(2,5,8,11-tetraoxatridecan-13-yl)nicotinamide]"
11,< 50,"O=C(Nc1ccc(Oc2ccnc3cc(-c4cn(CC(=O)N5CCCCC5)nn4)sc23)c(F)c1)NC1CC1 [Compound 372, 1-cyclopropyl-3-(3-fluoro-4-(2-(1-(2-oxo-2-(piperidin-1-yl)ethyl)-1H-1,2,3-triazol-4-yl)thieno[3,2-b]pyridin-7-yloxy)phenyl)urea]"
12,< 50,"CC(=O)N1CCN(Cc2ccc(-c3cc4nccc(Oc5ccc(NC(=O)NC6CC6)cc5F)c4s3)nc2)CC1 [Compound 66, 1-(4-(2-(5-((4-acetylpiperazin-1-yl)methyl)pyridin-2-yl)thieno[3,2-b]pyridin-7-yloxy)-3-fluorophenyl)-3-cyclopropylurea]"
13,< 50,"CCNC(=O)N(CCOC)Cc1cnc(-c2cc3nccc(Oc4ccc(NC(=O)NC(C)C)cc4F)c3s2)n1C [Compound 161-A, 1-((2-(7-(4-isopropylaminocarbonylamino-2-fluorophenoxy)thieno[3,2-b]pyridin-2-yl)-1-methyl-1H-imidazol-5-yl)methyl)-3-ethyl-1-(2-methoxyethyl)urea]"
14,< 50,CCNC(=O)N1CCN(C(=O)c2ccc(-c3cc4nccc(Oc5ccc(NC(=O)NC6CC6)cc5F)c4s3)nc2)CC1 [Compound 557]
15,100 to 250,CC(C)(C)C(=O)OC1CCN(C(=O)c2cc3nccc(Oc4ccc(NC(=O)NC5CC5)cc4F)c3s2)CC1 [Compound 455]
16,< 50,C[C@@H]1CN(Cc2ccc(-c3cc4nccc(Oc5ccc(NC(=O)NC6CC6)cc5F)c4s3)nc2)C[C@H](C)N1CCO [Compound 583]
17,50 to 100,"COCCN(Cc1ccc(-c2cc3nccc(Oc4ccc(NC(=S)NC5CC5)cc4F)c3s2)nc1)C(=O)CO [Compound 505, N-((6-(7-(4-(3-cyclopropylthioureido)-2-fluorophenoxy)thieno[3,2-b]pyridin-2-yl)pyridin-3-yl)methyl)-2-hydroxy-N-(2-methoxyethyl)acetamide]"
